These results are taken from patent US20210361701A1, “PENTAAZA MACROCYCLIC RING COMPLEXES FOR LOCAL DELIVERY” (Galera Labs, LLC, priority 2017, published 2021).

Where two headings read alike, the source gives them in different places.

Series [1] can be described thus: Rat indomethacin model of intestinal inflammation (Crohn's Disease). The series is classed as in vivo, Female Lewis rats. As to the method: A study was conducted to determine the potential efficacy of GC4403 delivered locally to the intestine in a model of intestinal inflammation (Crohn's Disease) induced by the administration of indomethacin. Female Lewis rats received cannulae surgically implanted in the duodenum with the opposite end exteriorized, and were allowed to recover. The cannulae enabled the direct injection of GC4403 or vehicle into the duodenum (intraduodenal or ID dosing) in these animals; however, uncannulated female Lewis rats were used for dosing groups not receiving ID dosing. Rats were administered indomethacin on experimental days 0 and 1 (9 mg/kg/d; subcutaneously) to induce lesions similar to those occurring in Crohn's disease in the small intestine (SI). The therapeutic interventions outlined in Table II were administered in 9 dosing groups of 10 (IV) or 12 (ID) animals each on days 0 through 3:
The rats were sacrificed and necropsied on day 4, and 10 cm sections from the middle portion of the SI (jejunum) were weighed and examined by histopathology for inflammation. The weight of a 10 cm section serves as a surrogate marker for comparing inflammation and edema across the dosing groups.

A short description of series [2]: Plasma pharmacokinetics after intraduodenal or intravenous dosing in female rats. The series is classed as in vivo. As to the method: Therefore, following equivalent doses of GC4403, the systemic exposure to an ID dose in this Example was at least 30-100 times lower than it would be from an IV dose. […] This is important since the No Observable Adverse Effect Level (NOAEL) for chronic repeated IV dosing of GC4403 in the rat was previously shown to be only 3 mg/kg/day, and at this time, GC4403 has only be administered successfully to humans by the IV route. Thus, GC4403 or another related dismutase mimetic, such as GC4419, administered as an appropriate oral dosage form delivering drug directly into the small intestine may be an effective treatment for Crohn's Disease, ulcerative colitis and related diseases in humans.

For series [3] the following is noted: chronic repeated IV dosing, rat; cited from earlier work.
The conditions of series [4]: 30-minute iv infusion in humans; cited from earlier work.
The nature of series [5]: Maximum tolerated dose by 30-minute iv infusion in humans. To be noted: in a 70-kg subject.
[6] abbreviates: 10 mg/kg IP injection on days 0-3.
Where [7] appears, read: 30 mg/kg ID, direct topical delivery into the intestine.

Take `[Cl-].[Cl-].[Mn+2].c1cc2nc(c1)CN[C@@H]1CCCC[C@H]1NCCN[C@@H]1CCCC[C@H]1NC2` [GC4403]: in series [1] (setting [6]), the jejunal score entry is recorded as “reduced” and the jejunal weight entry is “reduced”. Besides, in series [1] (setting [7]), the “reduction in jejunal score” value came to 21% and the “reduction in jejunal weight” value is reported as 32%. In addition, the mean plasma maximum entry in series [2] (3 mg/kg IV dose, separate study, measured 10 min after injection) was “at least 3,280 ng/mL”. Besides, the “mean plasma maximum (Cmax)” value in series [2] (30 mg/kg ID dose) is on record as 303 ng/mL. For the same compound, in series [2] (30 mg/kg ID dose, AUC of ID vs estimated AUC with IV), the calculated bioavailability is recorded as 3.1%. Further, the “expected Cmax extrapolated” value in series [2] (30 mg/kg IV dose) is “approximately 32,800 ng/mL”. The “Cmax of ID dose relative to expected Cmax of same dose IV” value in series [2] (30 mpk ID vs 30 mg/kg IV (extrapolated)) is “less than 1%”. Further, in series [2] (equivalent doses), the “systemic exposure to an ID dose, lower than from an IV dose” value is recorded as 30-100 times. Moreover, in series [3], the “No Observable Adverse Effect Level (NOAEL)” value is 3 mg/kg/day. For the same compound, the maximum tolerated dose in series [4] is on record as 25 mg. Besides, in series [5], the maximum tolerated dose result was “roughly 0.35 mg/kg”.
